Test [1] concerns the target T1, 2-acylglycerol O-acyltransferase 2 (Homo sapiens, UniProt Q3SYC2). Nature of the test: Inhibition of human MGAT2 by LC/MS assay.
Test [2] has as its target T1, 2-acylglycerol O-acyltransferase 2. Nature of the test: Inhibition of human MGAT2 by SPA assay.

T1 sequence (Q3SYC2 whole entry): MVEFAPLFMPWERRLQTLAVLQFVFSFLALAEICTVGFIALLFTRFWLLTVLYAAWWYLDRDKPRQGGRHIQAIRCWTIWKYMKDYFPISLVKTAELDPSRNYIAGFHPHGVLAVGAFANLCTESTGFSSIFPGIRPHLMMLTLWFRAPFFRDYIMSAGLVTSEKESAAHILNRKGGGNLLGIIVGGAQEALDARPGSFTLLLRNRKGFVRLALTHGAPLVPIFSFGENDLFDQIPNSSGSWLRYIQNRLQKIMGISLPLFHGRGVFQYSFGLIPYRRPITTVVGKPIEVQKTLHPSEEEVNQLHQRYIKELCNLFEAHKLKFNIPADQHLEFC

The term IC50 denotes the concentration needed to halve the response being measured. `Cc1ccc(C2=C(C(=O)Nc3ccno3)C(=O)N[C@@](c3ccc(OCCCC(F)(F)F)cc3)(C(F)(F)F)C2)cc1`: the results for the IC50 in test [1] and in test [2] were 2 nM and 8 nM, respectively.
Consider `Cc1ccc(C2=C(C(=O)Nc3ccc(-c4nnn[nH]4)cc3)C(=O)N[C@@](c3ccc(OCCCC(F)(F)F)cc3)(C(F)(F)F)C2)cc1`, for which the IC50 in test [1] is 7 nM; in test [2], 9 nM.
